Source: ChEMBL document CHEMBL4392829, “Synthesis and biological evaluation of 3-substituted 2-oxindole derivatives as new glycogen synthase kinase 3β inhibitors” (Bioorg Med Chem, 2019)
pIC50: −log10 of the molar value. Active and inactive are the calls of the source. The calls are words filed in the database; no cut-off is given here.

Assays:
[1] = molecular target: Glycogen synthase kinase-3 beta (Homo sapiens, UniProt P49841); assay: Inhibition of recombinant human GSK3beta using YRRAAVPPSPSLSRHSSPHQ(pS)EDEEE as substrate measured after 60 mins by ADP-Glo luminescence assay
A549 = assay: Cytotoxicity against human A549 cells assessed as reduction in cell viability measured after 72 hrs by MTT assay; format: cell-based; settings: for pIC50: read-out: IC50
Rattus norvegicus [2] = assay: Antidiabetic activity in […]/STZ-induced obese type-2 diabetes Wistar rat model assessed as reduction in blood glucose level at 50 mg/kg, ip pretreated for 30 mins followed by glucose challenge and measured up to 120 mins by OGTT; format: functional, organism-based
PBMC [3] = assay: Cytotoxicity against human PBMC assessed as reduction in cell viability at 0.1 to 10 uM measured after 24 hrs by MTT assay; format: cell-based
Rattus norvegicus [4] = assay: Antidiabetic activity in […]/STZ-induced obese type-2 diabetes Wistar rat model assessed as reduction in blood glucose level at 10 mg/kg, ip pretreated for 30 mins followed by glucose challenge and measured up to 120 mins by OGTT; format: functional, organism-based
PBMC [5] = assay: Cytotoxicity against human PBMC assessed as reduction in cell viability at 10 uM measured after 24 hrs by MTT assay; format: cell-based

Sequence of Glycogen synthase kinase-3 beta (P49841 whole entry): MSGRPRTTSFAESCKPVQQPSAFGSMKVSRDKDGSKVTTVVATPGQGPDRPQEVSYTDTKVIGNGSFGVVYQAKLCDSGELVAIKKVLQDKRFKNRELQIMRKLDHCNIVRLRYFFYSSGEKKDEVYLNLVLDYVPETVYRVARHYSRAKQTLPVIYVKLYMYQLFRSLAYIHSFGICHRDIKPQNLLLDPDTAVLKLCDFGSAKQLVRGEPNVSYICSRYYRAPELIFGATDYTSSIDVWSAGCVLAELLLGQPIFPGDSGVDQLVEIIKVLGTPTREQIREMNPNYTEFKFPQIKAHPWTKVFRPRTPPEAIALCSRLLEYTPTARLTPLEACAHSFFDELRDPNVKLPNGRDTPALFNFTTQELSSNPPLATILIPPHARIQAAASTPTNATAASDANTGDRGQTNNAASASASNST

Cc1ccc(C(=O)CC2(O)C(=O)Nc3ccc(Br)cc32)cc1 (stereo not given) was tested, and the pIC50 [1] was under 5.00 and the pIC50 (A549; Homo sapiens, A549, 72 h) was under 4.00.

Molecule O=C1Nc2ccc(Br)cc2C1=Cc1cccs1 (mixture of isomers) has a pIC50 [1] of under 5.00 and a pIC50 (A549; Homo sapiens, A549, 72 h) of 3.37.

Molecule Cc1ccc(C(=O)/C=C2\C(=O)Nc3ccccc32)cc1 has a pIC50 [1] of under 5.00 and a pIC50 (A549; Homo sapiens, A549, 72 h) of 4.73.

With COc1ccc(C(=O)CC2(O)C(=O)Nc3ccccc32)cc1 (stereo not given) the pIC50 [1] was under 5.00 and the pIC50 (A549; Homo sapiens, A549, 72 h) was under 4.00.

Molecule O=C1Nc2ccc([N+](=O)[O-])cc2C1=Cc1cccnc1 (mixture of isomers) has a pIC50 [1] of under 5.00 and a pIC50 (A549; a549) of 3.37.

Molecule O=C1Nc2ccc([N+](=O)[O-])cc2/C1=C/c1ccco1 has a pIC50 [1] of 4.89 and a pIC50 (A549; a549) of 3.48.

Cc1ccc(C(=O)CC2(O)C(=O)Nc3ccccc32)cc1 (stereo not given) showed a pIC50 [1] of under 5.00 and a pIC50 (A549; Homo sapiens, A549, 72 h) of 3.77.

In the case of O=C1Nc2ccccc2/C1=C/c1cccs1, the pIC50 [1] was under 5.00 and the pIC50 (A549; Homo sapiens, A549, 72 h) was 3.31.

O=C1Nc2ccccc2/C1=C/c1ccccn1 was tested, and the pIC50 [1] was 8.38, the Activity (Rattus norvegicus [2]) was “Active” and the pIC50 (A549; Homo sapiens, A549, 72 h) was 4.32. The Activity (PBMC [3]) was “Non-Toxic”.

In the case of O=C1Nc2ccc([N+](=O)[O-])cc2/C1=C\c1ccccn1, the pIC50 [1] was 4.70 and the IC50 (A549; a549) was “Non-Toxic”.

Work on O=C1Nc2ccc(Br)cc2C1=Cc1ccc(Br)cc1 (mixture of isomers) yielded a pIC50 [1] of under 5.00 and a pIC50 (A549; Homo sapiens, A549, 72 h) of 3.62.

With O=C1Nc2ccc([N+](=O)[O-])cc2C1=Cc1ccncc1 (mixture of isomers) the pIC50 [1] was under 5.00 and the IC50 (A549; a549) was “Non-Toxic”.

With O=C1Nc2ccccc2C1=Cc1cccnc1 (mixture of isomers) the pIC50 [1] was under 5.00 and the pIC50 (A549; a549) was 4.17.

For O=C1Nc2ccccc2/C1=C/c1ccco1, the pIC50 [1] was under 5.00 and the pIC50 (A549; Homo sapiens, A549, 72 h) was 3.23.

COc1ccc2c(c1)/C(=C/C#N)C(=O)N2Cc1ccccc1 was tested, and the pIC50 [1] was under 5.00.

Work on CC(=O)Nc1ccc2c(c1)/C(=C/c1cccc(O)c1)C(=O)N2 yielded a pIC50 [1] of under 5.00 and a pIC50 (A549; Homo sapiens, A549, 72 h) of 3.75.

COc1ccc2c(c1)C(O)(CC(=O)c1ccc(C)cc1)C(=O)N2 (stereo not given) showed a pIC50 [1] of under 5.00 and a pIC50 (A549; Homo sapiens, A549, 72 h) of under 4.00.

With O=C1Nc2ccc(Br)cc2C1=Cc1ccncc1 (mixture of isomers) the pIC50 [1] was under 5.00 and the pIC50 (A549; Homo sapiens, A549, 72 h) was 4.65.

With COc1cccc2c1C(=O)c1c(O)c3c(c(O)c1C2=O)C[C@@](O)(C(C)=O)C[C@@H]3O[C@H]1C[C@H](N)[C@H](O)[C@H](C)O1 [DAUNORUBICIN] the pIC50 (A549; Homo sapiens, A549, 72 h) was 6.82.

For N#C[C@@H]1CCCN1C(=O)CNC12CC3CC(CC(O)(C3)C1)C2, the Activity (Rattus norvegicus [4]) was “Active”.

For O=C1Nc2ccc(NC(=O)c3ccccc3)cc2/C1=C/c1ccc(O)cc1, the pIC50 [1] was 5.36, the pIC50 (A549; a549) was 3.38 and the Activity (PBMC [5]) was “Toxic”.

With CC[C@@]1(O)C(=O)OCc2c1cc1n(c2=O)Cc2cc3ccccc3nc2-1 [CAMPTOTHECIN] the pIC50 (A549; Homo sapiens, A549, 72 h) was 5.48.

Work on N#CCC1(O)C(=O)Nc2ccc(NC(=O)c3ccccc3)cc21 (stereo not given) yielded a pIC50 [1] of under 5.00.

In the case of COc1ccc2c(c1)/C(=C/C(=O)O)C(=O)N2, the pIC50 [1] was under 5.00.

Molecule COc1cccc2c1C(=O)c1c(O)c3c(c(O)c1C2=O)C[C@@](O)(C(=O)CO)C[C@@H]3O[C@H]1C[C@H](N)[C@H](O)[C@H](C)O1 [DOXORUBICIN] has a pIC50 (A549; Homo sapiens, A549, 72 h) of 6.77.

In the case of COC(=O)Nc1ccc2c(c1)/C(=C/c1ccc(O)cc1)C(=O)N2, the pIC50 (A549; a549) was 4.35 and the Activity (PBMC [3]) was “Non-Toxic”.

In the case of O=C1Nc2ccccc2C1=Cc1ccncc1 (mixture of isomers), the pIC50 [1] was under 5.00 and the pIC50 (A549; Homo sapiens, A549, 72 h) was 4.10.

In the case of COc1cc(/C=C2\C(=O)Nc3ccc(NC(C)=O)cc32)cc(OC)c1OC, the pIC50 (A549; a549) was 3.83 and the Activity (PBMC [3]) was “Non-Toxic”.

COC(=O)Nc1ccc2c(c1)C(=Cc1ccc([N+](=O)[O-])cc1)C(=O)N2 (mixture of isomers) was tested, and the pIC50 (A549; a549) was under 4.00 and the Activity (PBMC [3]) was “Non-Toxic”.

O=C1Nc2ccc(Br)cc2C1=Cc1cccnc1 (mixture of isomers) gave a pIC50 [1] of under 5.00 and a pIC50 (A549; Homo sapiens, A549, 72 h) of 4.50.

Molecule COc1ccc(C(=O)CC2(O)C(=O)Nc3ccc(Br)cc32)cc1 (stereo not given) has a pIC50 [1] of under 5.00 and a pIC50 (A549; Homo sapiens, A549, 72 h) of 3.32.

O=C1Nc2ccc(Br)cc2C1=Cc1ccco1 (mixture of isomers) was tested, and the pIC50 [1] was under 5.00 and the pIC50 (A549; Homo sapiens, A549, 72 h) was 3.35.

O=C1Nc2ccc(Br)cc2/C1=C\c1ccccn1 showed a pIC50 [1] of under 5.00 and a pIC50 (A549; Homo sapiens, A549, 72 h) of 4.04.

For COC(=O)Nc1ccc2c(c1)/C(=C/c1ccc(Br)cc1)C(=O)N2, the pIC50 [1] was under 5.00 and the pIC50 (A549; Homo sapiens, A549, 72 h) was under 4.00.

COc1cc(NC(C)=O)c2c(c1)C(CC#N)(OC(C)=O)C(=O)N2 (stereo not given) showed a pIC50 [1] of under 5.00.

In the case of O=C1Nc2ccccc2C12CC2c1ccccn1 (stereo not given), the pIC50 [1] was 5.91, the pIC50 (A549; Homo sapiens, A549, 72 h) was under 4.00 and the Activity (PBMC [3]) was “Non-Toxic”.

Molecule CC(=O)Nc1ccc2c(c1)C(CC(=O)O)(OC(C)=O)C(=O)N2 (stereo not given) has a pIC50 [1] of under 5.00.

CCC(=O)Nc1cc(NC(=O)CC)c2c(c1)C(CC#N)(OC(=O)CC)C(=O)N2 (stereo not given) was tested, and the pIC50 [1] was under 5.00.
